Reference: paper PMC4993479 (PLoS ONE, 2016)
Where two headings read alike, the source gives them in different places.

Key:
[1] = In vitro skin diffusion across human epidermis in Franz-type diffusion cells; assay type: in vitro ADME
Description: Full thickness human skin samples from patients (26–48 years old females) undergoing abdominoplasty at Perth (WA, Australia) hospitals were refrigerated immediately after surgery. Sampling was approved by the Human Research Ethics Committee of Curtin University and was conducted in compliance with the guidelines of the National Health and Medical Research Council of Australia. Epidermal sheets were obtained and stored as previously described. […] Two hundred μL samples of the receptor phase were withdrawn and replaced with an equal volume of fresh pre-warmed (37°C) 25:75 PG:PBS over an 8 h period and the content analysed by HPLC. […] Permeability coefficients (cm/h) were calculated.

[2] = Uptake/retention in the epidermis by solvent extraction and HPLC after the permeation experiment; settings: human epidermis
Description: Briefly, the skin sections were placed in 500 μL methanol and vortexed for 2 min, then transferred to a second 500 μL methanol volume and vortexed for another 2 min. The skin sample was then placed in 1 mL propylene glycol for 1 h with agitation. After centrifuging each extract at 10,000 × g for 10 min, the resultant supernatants were diluted appropriately, quantified by HPLC, and the data combined to give total penetrant in the epidermal section.
Mass balance/recovery after the skin permeation experiments was determined by removing and retaining the donor solution, and washing the epidermal surface, donor and receptor compartments and retaining all washing solutions. The content of all solutions was analysed by HPLC following suitable dilution.

COX-2 = molecular target: T1, COX-2 (Homo sapiens, UniProt P35354); experiment: COX Fluorescent Inhibitor Screening Assay (COX-2 inhibition); assay type: biochemical; settings: concentration range 0.000155–0.31 mM, 2 min incubation
T1 construct: purchased Cayman Chemical 700100
T1 sequence (P35354 18-604): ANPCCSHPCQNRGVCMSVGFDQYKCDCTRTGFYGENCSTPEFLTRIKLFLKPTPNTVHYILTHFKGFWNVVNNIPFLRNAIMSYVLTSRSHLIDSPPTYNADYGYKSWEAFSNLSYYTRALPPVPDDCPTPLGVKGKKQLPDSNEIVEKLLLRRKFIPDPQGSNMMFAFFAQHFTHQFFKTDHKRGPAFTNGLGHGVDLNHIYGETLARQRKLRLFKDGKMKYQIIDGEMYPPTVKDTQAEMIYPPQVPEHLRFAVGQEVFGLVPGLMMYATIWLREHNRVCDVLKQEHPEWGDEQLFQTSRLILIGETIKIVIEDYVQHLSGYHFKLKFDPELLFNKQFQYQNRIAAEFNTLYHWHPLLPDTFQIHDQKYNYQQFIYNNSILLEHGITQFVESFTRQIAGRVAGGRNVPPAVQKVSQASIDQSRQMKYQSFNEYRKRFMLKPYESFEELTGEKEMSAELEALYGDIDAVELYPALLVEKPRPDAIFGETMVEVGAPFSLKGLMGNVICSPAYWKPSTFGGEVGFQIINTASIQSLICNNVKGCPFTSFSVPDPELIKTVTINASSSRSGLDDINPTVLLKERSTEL

steady state flux ([1]; human epidermis, 300 μL containing 150 μg diclofenac alone or as conjugate in 25:75 PG:PBS, 8 h) [μg/cm^2/h]	Maximum amount permeated ([1]; human epidermis, applied dose 150 μg in 300 μL 25:75 PG:PBS, 8 h)	Amount permeated (% of applied dose) ([1]; human epidermis, applied dose 150 μg, 8 h)	Amount extracted from the skin (% of applied dose) ([2]; applied dose 150 μg)	Amount extracted (skin distribution) ([2]; applied dose 150 μg in 25:75 PG:PBS, after 8 h permeation experiment)	COX-2 inhibition (in words) (COX-2)	Compound	Amount permeated (% of applied dose) [1]	Maximum amount permeated [1]
						CN1C(=O)[C@H](Cc2ccc(NC(=O)Cc3ccccc3Nc3c(Cl)cccc3Cl)cc2)NC(=O)[C@@H]1Cc1ccc2ccccc2c1 [DKP-diclofenac conjugate, DKP Phe(Diclofenac)-N-MeNal]	4.00 % of applied dose	6.01(±0.16) μg/cm^2
0.12	0.91(±0.15) μg/cm^2	0.60 % of applied dose	5.72 % of applied dose	8.58(±1.50) μg		O=C(O)Cc1ccccc1Nc1c(Cl)cccc1Cl [Diclofenac, Diclofenac sodium]		
					did not demonstrate COX-2 inhibition	DKP Phe-N-MeNal	4.33 % of applied dose	6.50(±1.94) μg/cm^2
